Data reported in patent US4717716A, “Immuno-regulator” (Nihon University, priority 1985, dated 1988).
Several values for one entry are separate records, joined by “and”; a condition that tells them apart may be missing. Equal values may be shown once.

Key:
[1] = Physicochemical properties of L-carnosine
[2] = system: plaque-forming cells of DDY mouse immunized with sheep red blood cells (SRBC); assay: PFC method (hemolytic plaque-forming cells) in mice immunized with SRBC; format: in vivo; details: for PFC Number per g. Spleen: 4 days after immunization; for PFC reaction: mouse of 5 weeks age, 2.5×10^8 SRBC
[3] = system: anti-SRBC antibody in serum of mice immunized with SRBC; assay: Determination of serum antibody value (hemagglutination titer, HA-titer); format: in vivo, mouse; details: for Anti-SRBC Antibody Value N: maximal positive dilution 2^N
Method: Blood was collected in the PFC reaction from carotid arteries of a group of five mice, from which was separated a serum in a conventional manner for determination of hemagglutination titer (HA-titer). The test serum was diluted with a phosphate buffered saline (PBS) containing 0.5-1% of a serum from a normal rabbit, and was evaluated using SRBC. The maximal dilution showing positive reaction was represented by 2^N, wherein N represents an antibody value.

[4] = formulated by LISA corporation in Spain since 10 years; cited from earlier work
[5] = system: DDY male mouse; assay: Acute toxicity of L-carnosine in mice; format: in vivo
Method: L-carnosine was administered peritoneally or orally in different amounts to a group of 10 mice and acute toxic symptoms were observed 5 hours after administration. […] L-carnosine was dissolved in a physiological saline so as to give a dose of 0.1 to 0.3 ml/10 g.

[6] = system: male DDY mouse sensitized with picryl chloride; assay: Delayed hypersensitivity reaction (picryl chloride contact dermatitis); format: in vivo; details: for Increase of Ear control %: 0 mg/kg/day = 100; for Thickness × 10^-3cm Increase of Ear: 1% picryl chloride, average of 8 mice ± S.D.
Excerpt: A male DDY mouse of 5 weeks are weighing about 20 g was used to detect its contact dermatitis by means of 2, 4, 6-trinitro-chlorobenzene (picryl chloride) (available from Tokyo Chemical Industry Co., Ltd). An ethanol solution of 1% picryl chloride was impregnated into 4-layered gauge (1×1 cm), which was then contacted with a shaved abdomen of the mouse for 10 seconds to cause primary sensitization. The secondary sensitization for test was caused on seventh day by applying an olive oil solution of 1% picryl chloride on both surfaces of one ear by means of a paint brush. The other ear had applied only olive oil as a control. After 24 hours, the mouse was anesthetized with ether, and thickness of the ear was determined in the order of 1/100 mm by a micrometer having precision of 1/100 mm. The delayed hypersensitivity reaction was calculated as follows: […]
(Thickness of Ear Applied with Picryl Chloride after 24 Hours--Thickness of Ear before Application) minus (Thickness of Ear Applied with Olive Oil After 24 Hours--Thickness of Ear before Application).
L-carnosine was administered subcutaneously in the indicated amount for 14 days. On the 7th day, sensitization was conducted by 1% picryl chloride, and examination was carried out on 7 days later. Values are shown in an average of 8 mices ±S.D.

[7] = SRBC antigen amount 2.5 × 10^9, 100 mg/Kg/day S.C. for six days
[8] = SRBC antigen amount 5 × 10^7, 100 mg/Kg/day S.C. for six days
[9] = mice of 2 weeks age, 100 mg/Kg/day S.C., 2.5 × 10^8 SRBC
[10] = mice of 5 weeks age, 100 mg/Kg/day S.C., 2.5 × 10^8 SRBC
[11] = mice of 30 weeks age, 100 mg/Kg/day S.C., 2.5 × 10^8 SRBC
[12] = 50 mg/kg/day subcutaneously for 14 days
[13] = 250 mg/kg/day subcutaneously for 14 days
[14] = 500 mg/kg/day subcutaneously for 14 days

## NCCC(=O)N[C@@H](Cc1cnc[nH]1)C(=O)O [L-carnosine, β-alanyl-L-histidine]
[1]
  solubility in water: readily soluble in water
[2]; 25 mg/kg
  PFC Number per Chamber: 53.0 ± 6.1
  PFC Number per Spleen: 10.7 × 10^4
[2]; 25 mg/kg for 6 days, 2.5 × 10^8 SRBC, 0 mg/kg = 100
  PFC Number per g. Spleen (%): 133%
[2]; 25 mg/kg for 6 days, 2.5 × 10^8 SRBC, mice
  PFC Number per g. Spleen: 7.6 × 10^5
[2]; 25 mg/kg, 144 h
  PFC Number per Chamber (%): 88%
  PFC Number per Spleen (%): 123%
  Weight of Spleen (%): 92%
[2]; 50 mg/kg
  PFC Number per Chamber: 73.6 ± 6.2
  PFC Number per Spleen: 14.9 × 10^4
[2]; 50 mg/kg for 6 days, 2.5 × 10^8 SRBC, 0 mg/kg = 100
  PFC Number per g. Spleen (%): 149%
[2]; 50 mg/kg for 6 days, 2.5 × 10^8 SRBC, mice
  PFC Number per g. Spleen: 8.5 × 10^5
[2]; 50 mg/kg, 144 h
  PFC Number per Chamber (%): 122%
  PFC Number per Spleen (%): 171%
  Weight of Spleen (%): 116%
[2]; 100 mg/kg
  effect on the PFC response: No effect
[2]; 100 mg/kg, 144 h
  PFC decreased: 30%
  PFC increased: 30%
[2]; 250 mg/kg
  PFC Number per Chamber: 69.8 ± 6.5
  PFC Number per Spleen: 14.6 × 10^4
[2]; 250 mg/kg for 6 days, 2.5 × 10^8 SRBC, 0 mg/kg = 100
  PFC Number per g. Spleen (%): 167%
[2]; 250 mg/kg for 6 days, 2.5 × 10^8 SRBC, mice
  PFC Number per g. Spleen: 9.5 × 10^5
[2]; 250 mg/kg, 144 h
  PFC Number per Chamber (%): 116%
  PFC Number per Spleen (%): 168%
  Weight of Spleen (%): 100%
[2]; 500 mg/kg
  PFC Number per Chamber: 64.8 ± 4.9
  PFC Number per Spleen: 8.3 × 10^4
[2]; 500 mg/kg for 6 days, 2.5 × 10^8 SRBC, 0 mg/kg = 100
  PFC Number per g. Spleen (%): 107%
[2]; 500 mg/kg for 6 days, 2.5 × 10^8 SRBC, mice
  PFC Number per g. Spleen: 6.1 × 10^5
[2]; 500 mg/kg, 144 h
  PFC Number per Chamber (%): 107%
  PFC Number per Spleen (%): 95%
  Weight of Spleen (%): 89%
[2]; 2 weeks age, 100 mg/Kg/day S.C., 2.5 × 10^8 SRBC, normal = 100
  PFC Number per g. Spleen (%): 64%
[2]; 5 weeks age, 100 mg/Kg/day S.C., 2.5 × 10^8 SRBC, normal = 100
  PFC Number per g. Spleen (%): 110%
[2]; 30 weeks age, 100 mg/Kg/day S.C., 2.5 × 10^8 SRBC, normal = 100
  PFC Number per g. Spleen (%): 177%
[2]; SRBC 2.5 × 10^9, 100 mg/Kg/day S.C. six days, normal = 100
  PFC Number per g. Spleen (%): 71%
[2]; SRBC 5 × 10^7, 100 mg/Kg/day S.C. six days, normal = 100
  PFC Number per g. Spleen (%): 119%
[2]; SRBC 5 × 10^8, 100 mg/Kg/day S.C. six days, normal = 100
  PFC Number per g. Spleen (%): 53%
[2]; [7]
  PFC Number per g. Spleen: 10.2 × 10^5
[2]; [8]
  PFC Number per g. Spleen: 5.0 × 10^5
[2]; SRBC antigen amount 5 × 10^8, 100 mg/Kg/day S.C. for six days
  PFC Number per g. Spleen: 8.2 × 10^5
[2]; immature mouse of 2 weeks age, 100 mg/Kg for 9 days
  effect on the PFC response: suppressed
[2]; [9]
  PFC Number per g. Spleen: 4.8 × 10^5
[2]; [10]
  PFC Number per g. Spleen: 12.5 × 10^5
[2]; [11]
  PFC Number per g. Spleen: 11.7 × 10^5
[2]; 50 and 250 mg/Kg for 6 days
  PFC reaction: increased
[2]; dose of more than 500 mg/Kg
  PFC reaction: subsided
[2]; old mouse of 30 weeks age, 100 mg/Kg for 9 days
  effect on the PFC response: doubly strengthened
[2]; sc
  optimum dosage for the immuno-regulatory action: 100 mg/kg/day
[2]; sc, 100 mg/kg/day, 336 h
  Weight of Spleen (%): 93%
[2]; sc, 100 mg/kg/day, 840 h
  PFC Number per Chamber (%): 107%
  PFC Number per Spleen (%): 110%
  Weight of Spleen (%): 100%
[2]; sc, 100 mg/kg/day, 5040 h
  Weight of Spleen (%): 121%
[3]; 25 mg/kg for 6 days, 2.5 × 10^8 SRBC
  Anti-SRBC Antibody Value N: 9
[3]; 50 mg/kg for 6 days, 2.5 × 10^8 SRBC
  Anti-SRBC Antibody Value N: 10
[3]; 250 mg/kg for 6 days, 2.5 × 10^8 SRBC
  Anti-SRBC Antibody Value N: 9
[3]; 500 mg/kg for 6 days, 2.5 × 10^8 SRBC
  Anti-SRBC Antibody Value N: 8
[3]; [7]
  Anti-SRBC Antibody Value N: 8
[3]; [8]
  Anti-SRBC Antibody Value N: 4
[3]; level of more than 500 mg/Kg
  hemagglutination reaction: subsided
[3]; [9]
  Anti-SRBC Antibody Value N: 6-7
[3]; [10]
  Anti-SRBC Antibody Value N: 9-10
[3]; [11]
  Anti-SRBC Antibody Value N: 9
[4]
  safety in use as anorexia treating agent: confirmed to be safe
[5]; DDY male mouse
  acute toxicity, overall: very low toxicity
[5]; mouse, in vivo
  effective amount as fraction of acute toxicity LD50: 1/181
  mice killed: one of the 10
[5]; oral 15,000 mg/Kg, mice
  toxic effect of oral administration: little effect
[5]; oral, DDY male mouse, value on 72 hours
  LD50 (minimal lethal dose): > 14,930 mg/Kg
[5]; peritoneal 15,000 mg/Kg, from about 30 minutes, a half of the mice
  toxic symptoms: depression of voluntary motility, abdominal position, depression and irregularity of respiration rate
[5]; peritoneal administration, mice
  LD 100: 15,000 mg/Kg
[5]; peritoneal, DDY male mouse, value on 72 hours
  LD50 (95% confidence limit): 9,087 (8,320-9,925) mg/Kg and 9,087 mg/Kg
[6]; [12]
  Increase of Ear control %: 122.6%
  Thickness × 10^-3cm Increase of Ear: 14.1 ± 3.6 × 10^-3cm
[6]; [13]
  Increase of Ear control %: 136.5%
  Thickness × 10^-3cm Increase of Ear: 15.7 ± 2.5 × 10^-3cm
[6]; [14]
  Increase of Ear control %: 185.2%
  Thickness × 10^-3cm Increase of Ear: 21.3 ± 8.7 × 10^-3cm
[6]; doses of 50, 250 and 500 mg/Kg
  DHR with 1% picryl chloride: increasing trend of reaction
